Assay results taken from patent US20100267561A1, “HERBICIDAL PYRIDAZINONE DERIVATIVES” (priority 2007, published 2010).

Assays:
Format in all cases: in vivo
[1] = tested on: blackgrass (Alopecurus myosuroides); assay: Test B pre-/postemergence plant response; conditions: for Blackgrass plant response rating: 8 g ai/ha
How it was run: (§1)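 Seeds were sown and sprayed preemergence, while plants at 2 to 18 cm (1- to 4-leaf stage) got postemergence sprays. Compounds were formulated in a non-phytotoxic solvent mixture with surfactant. After 13 to 15 days in a greenhouse, injury was rated visually against untreated controls, 0 (no effect) to 100 (complete control).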

[2] = tested on: catchweed bedstraw (Galium aparine); assay: Test B pre-/postemergence plant response; conditions: Preemergence
How it was run: as §1

[3] = tested on: cocklebur (Xanthium strumarium); assay: Test B pre-/postemergence plant response; conditions: for Cocklebur plant response rating: 8 g ai/ha
How it was run: as §1

[4] = tested on: common (oilseed) sunflower (Helianthus annuus); assay: Test B pre-/postemergence plant response; conditions: Preemergence
How it was run: as §1

[5] = tested on: common ragweed (Ambrosia elation); assay: Test B pre-/postemergence plant response; conditions: for Ragweed plant response rating: 8 g ai/ha
How it was run: as §1

[6] = tested on: giant foxtail (Setaria faberii); assay: Test B pre-/postemergence plant response; conditions: for Foxtail, Giant plant response rating: 8 g ai/ha
How it was run: as §1

[7] = tested on: goosegrass (Eleusine indica); assay: Test B pre-/postemergence plant response; conditions: for Goosegrass plant response rating: 8 g ai/ha
How it was run: as §1

[8] = tested on: johnsongrass (Sorghum halepense); assay: Test B pre-/postemergence plant response; conditions: for Johnsongrass plant response rating: 8 g ai/ha
How it was run: as §1

[9] = tested on: lambsquarters (Chenopodium album); assay: Test B pre-/postemergence plant response; conditions: for Lambsquarters plant response rating: 8 g ai/ha
How it was run: as §1

[10] = tested on: large crabgrass (Digitaria sanguinalis); assay: Test B pre-/postemergence plant response; conditions: for Crabgrass, Large plant response rating: 8 g ai/ha
How it was run: as §1

[11] = tested on: wheat (Triticum aestivum); assay: Test B pre-/postemergence plant response; conditions: for Wheat plant response rating: 8 g ai/ha
How it was run: as §1

[12] = tested on: wild oat (Avena fatua); assay: Test B pre-/postemergence plant response; conditions: for Oat, Wild plant response rating: 8 g ai/ha
How it was run: as §1

[13] = tested on: yellow nutsedge (Cyperus esculentus); assay: Test B pre-/postemergence plant response; conditions: for Nutsedge, Yellow plant response rating: 8 g ai/ha
How it was run: as §1

[14] = tested on: windgrass (Apera spica-venti); assay: Test B postemergence plant response; conditions: for Plant response rating, Windgrass: Postemergence
How it was run: (§2)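 Following treatment of plants 2 to 18 cm high after emergence, pots were held under glass for 13 to 15 days; efficacy was then graded visually, 100 denoting complete control and a dash no test result.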

[15] = tested on: winter barley (Hordeum vulgare); assay: Test B postemergence plant response; conditions: for Plant response rating, Barley: Postemergence
How it was run: as §2

[16] = Postemergence, 16 g ai/ha, scale 0 to 100
[17] = Postemergence, 62 g ai/ha, scale 0 to 100
[18] = Preemergence, 31 g ai/ha, 0 to 100 scale, 0 no effect, 100 complete control
[19] = Preemergence, 62 g ai/ha, scale 0 to 100
[20] = 16 g ai/ha, scale 0 to 100 (0 no effect, 100 complete control)
[21] = 31 g ai/ha, 0 to 100 scale, 0 no effect, 100 complete control
[22] = Postemergence, 31 g ai/ha, scale 0 to 100, 0 no effect, 100 complete control
[23] = Preemergence, 16 g ai/ha, scale 0 to 100 (0 no effect, 100 complete control)
[24] = 8 g ai/ha, postemergence, 0-100 scale
[25] = 31 g ai/ha, scale 0 to 100, 0 no effect, 100 complete control

CCc1cc(-c2ccc(Cl)c(Cl)c2)nn1-c1c(O)cnn(C)c1=O [Compound 20]
Blackgrass plant response rating ([1]; postemergence, 0-100 scale): 30 | Plant response rating, Blackgrass [1, 16]: 50 | Plant response rating, Blackgrass [1, 17]: 60 | Plant response rating, Blackgrass [1, 18]: 90 | Plant response rating, Blackgrass [1, 19]: 90 | Blackgrass plant response rating ([1]; Preemergence, scale 0 to 100): 10 | Plant response rating, Galium [2, 20]: 0 | Plant response rating, Galium [2, 21]: 50 | Plant response rating, Galium ([2]; 62 g ai/ha, scale 0 to 100): 100 | Galium plant response rating ([2]; 8 g ai/ha, scale 0 to 100): 0 | Cocklebur plant response rating ([3]; postemergence, 0-100 scale): 0 | Plant response rating, Cocklebur [3, 16]: 0 | Plant response rating, Cocklebur [3, 22]: 0 | Plant response rating, Cocklebur [3, 17]: 0 | Plant response rating, Cocklebur [3, 23]: 0 | Plant response rating, Cocklebur [3, 18]: 0 | Plant response rating, Cocklebur [3, 19]: 0 | Cocklebur plant response rating ([3]; Preemergence, scale 0 to 100): 0 | Plant response rating, Sunflower [4, 20]: 0 | Plant response rating, Sunflower [4, 21]: 30 | Plant response rating, Sunflower ([4]; 62 g ai/ha, scale 0 to 100): 40 | Sunflower plant response rating ([4]; 8 g ai/ha, scale 0 to 100): 0 | Ragweed plant response rating ([5]; postemergence, 0-100 scale): 0 | Plant response rating, Ragweed [5, 16]: 0 | Plant response rating, Ragweed [5, 22]: 0 | Plant response rating, Ragweed [5, 17]: 0 | Plant response rating, Ragweed [5, 19]: 0 | Ragweed plant response rating ([5]; Preemergence, scale 0 to 100): 0 | Foxtail, Giant plant response rating ([6]; postemergence, 0-100 scale): 80 | Plant response rating, Foxtail, Giant [6, 16]: 90 | Plant response rating, Foxtail, Giant [6, 22]: 95 | Plant response rating, Foxtail, Giant [6, 17]: 95 | Plant response rating, Foxtail, Giant [6, 23]: 0 | Plant response rating, Foxtail, Giant [6, 18]: 50 | Plant response rating, Foxtail, Giant [6, 19]: 100 | Foxtail, Giant plant response rating ([6]; Preemergence, scale 0 to 100): 0 | Goosegrass plant response rating ([7]; postemergence, 0-100 scale): 5 | Plant response rating, Goosegrass [7, 16]: 20 | Plant response rating, Goosegrass [7, 22]: 65 | Plant response rating, Goosegrass [7, 17]: 80 | Plant response rating, Goosegrass [7, 23]: 0 | Plant response rating, Goosegrass [7, 19]: 70 | Goosegrass plant response rating ([7]; Preemergence, scale 0 to 100): 0 | Johnsongrass plant response rating ([8]; postemergence, 0-100 scale): 30 | Plant response rating, Johnsongrass [8, 16]: 75 | Plant response rating, Johnsongrass [8, 22]: 100 | Plant response rating, Johnsongrass [8, 17]: 100 | Plant response rating, Johnsongrass [8, 23]: 50 | Plant response rating, Johnsongrass [8, 18]: 75 | Plant response rating, Johnsongrass [8, 19]: 95 | Johnsongrass plant response rating ([8]; Preemergence, scale 0 to 100): 0 | Lambsquarters plant response rating ([9]; postemergence, 0-100 scale): 0 | Plant response rating, Lambsquarters [9, 16]: 0 | Plant response rating, Lambsquarters [9, 22]: 0 | Plant response rating, Lambsquarters [9, 17]: 40 | Plant response rating, Lambsquarters [9, 23]: 20 | Plant response rating, Lambsquarters [9, 18]: 100 | Plant response rating, Lambsquarters [9, 19]: 100 | Lambsquarters plant response rating ([9]; Preemergence, scale 0 to 100): 0 | Crabgrass, Large plant response rating ([10]; postemergence, 0-100 scale): 5 | Plant response rating, Crabgrass, Large [10, 16]: 70 | Plant response rating, Crabgrass, Large [10, 22]: 85 | Plant response rating, Crabgrass, Large [10, 17]: 90 | Plant response rating, Crabgrass, Large [10, 23]: 50 | Plant response rating, Crabgrass, Large [10, 18]: 50 | Plant response rating, Crabgrass, Large [10, 19]: 60 | Crabgrass, Large plant response rating ([10]; Preemergence, scale 0 to 100): 0 | Wheat plant response rating ([11]; postemergence, 0-100 scale): 0 | Plant response rating, Wheat [11, 16]: 20 | Plant response rating, Wheat [11, 22]: 20 | Plant response rating, Wheat [11, 17]: 60 | Plant response rating, Wheat [11, 23]: 0 | Plant response rating, Wheat [11, 18]: 0 | Plant response rating, Wheat [11, 19]: 0 | Wheat plant response rating ([11]; Preemergence, scale 0 to 100): 0 | Oat, Wild plant response rating ([12]; postemergence, 0-100 scale): 50 | Plant response rating, Oat, Wild [12, 16]: 90 | Plant response rating, Oat, Wild [12, 22]: 90 | Plant response rating, Oat, Wild [12, 17]: 90 | Plant response rating, Oat, Wild [12, 23]: 0 | Plant response rating, Oat, Wild [12, 18]: 50 | Plant response rating, Oat, Wild [12, 19]: 60 | Oat, Wild plant response rating ([12]; Preemergence, scale 0 to 100): 0 | Nutsedge, Yellow plant response rating ([13]; postemergence, 0-100 scale): 0 | Plant response rating, Nutsedge, Yellow [13, 16]: 0 | Plant response rating, Nutsedge, Yellow [13, 22]: 0 | Plant response rating, Nutsedge, Yellow [13, 17]: 0 | Plant response rating, Nutsedge, Yellow [13, 18]: 0 | Plant response rating, Nutsedge, Yellow [13, 19]: 0 | Nutsedge, Yellow plant response rating ([13]; Preemergence, scale 0 to 100): 0 | Windgrass plant response rating [14, 24]: 20 | Plant response rating, Windgrass ([14]; 16 g ai/ha, scale 0 to 100): 70 | Plant response rating, Windgrass [14, 25]: 85 | Plant response rating, Windgrass ([14]; 62 g ai/ha, scale 0 to 100): 90 | Barley plant response rating [15, 24]: 0 | Plant response rating, Barley ([15]; 16 g ai/ha, scale 0 to 100, 0 no effect, 100 complete control): 0 | Plant response rating, Barley [15, 25]: 0 | Plant response rating, Barley ([15]; 62 g ai/ha, scale 0 to 100): 0
